This note sets out measurements from the supplement of paper PMC5579334.

For assay [1], the system named is S462. As to the kind of experiment: % inhibition of CellTiter-Glo viability at highest tested concentration (72 h), relative to DMSO and benzethonium chloride controls; higher = more inhibition. Put shortly: (§1)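 Viability of MPNST cell lines and primary human Schwann cells was read as CellTiter-Glo ATP luminescence after 72 h at 37 °C, 5% CO2, in 384-well plates seeded with 750–1000 cells per well. Each compound had been preprinted at five concentrations in 10-fold steps. Signals were scaled between vehicle and positive-control wells, duplicates averaged where present, and fitted with four-parameter logistic curves. Drug sensitivity score and relative IC50 (censored at the top concentration) come from those fits, and percent inhibition is taken at the top concentration.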
For orientation: Cellular ATP, detected with luciferase, serves as a proxy for viable cell number.

In assay [2] the test system is HS-PSS. Described as above. Put shortly: as §1
Assay [3] deals with YST-1. The assay is described as above. A digest of the protocol: as §1
In assay [4] the test system is HS-Sch-2. The description is as above. Put shortly:
as §1

In assay [5] the test system is ST8814. The assay is described as above. A digest of the protocol: as §1
Assay [6] concerns STS26T. The assay is described as above. A digest of the protocol:
as §1

Assay [7] concerns HSC2 (primary human Schwann cells). Described as above. A digest of the protocol: as §1
The subject of assay [8] is HSC1 (primary human Schwann cells). Described as above. Put shortly:
as §1

The test system of assay [9] is S1507-2. The assay is described as above. Put shortly:
as §1

Assay [10] has as its system S462. As to the kind of experiment: drug sensitivity score (DSS, CellTiter-Glo viability, 72 h) (DSS (dimensionless)); higher = more sensitive; extreme values may be limits of the assay. Put shortly:
as §1

Assay [11] has as its system HS-PSS. The assay is described as above. A digest of the protocol: as §1
Assay [12] deals with YST-1. Described as above. A digest of the protocol: as §1
Assay [13] has as its system HS-Sch-2. The description is as above. Put shortly: as §1
The test system of assay [14] is ST8814. The assay is described as above. A digest of the protocol:
as §1

Assay [15] relates to STS26T. Described as above. Put shortly:
as §1

The subject of assay [16] is HSC2 (primary human Schwann cells). The description is as above. A digest of the protocol:
as §1

The test system of assay [17] is HSC1 (primary human Schwann cells). Described as above. A digest of the protocol: as §1
Assay [18] deals with S1507-2. The description is as above. Put shortly: as §1
Assay [19] deals with HS-PSS. Put plainly: drug sensitivity score (DSS, CellTox-Green cytotoxicity, 72 h) (DSS (dimensionless)); higher = more cytotoxic; extreme values may be limits of the assay. Put shortly: (§2)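 MPNST cell lines and primary human Schwann cells were grown for 72 h at 37 °C in 384-well plates containing five 10-fold compound dilutions. CellTox-Green, added before seeding at a final 1:1000 dilution, gave fluorescence from DNA released by disrupted cells, and signals were scaled to vehicle and positive-control wells. Curves were fitted with a four-parameter logistic model. Drug sensitivity score and relative IC50 come from these fits, with IC50 censored at the top concentration.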

In assay [20] the test system is ST8814. Described as above. A digest of the protocol: as §2
Assay [21] concerns STS26T. The assay is described as above. Put shortly:
as §2

For assay [22], the system named is HSC2 (primary human Schwann cells). Described as above. A digest of the protocol:
as §2

The test system of assay [23] is HSC1 (primary human Schwann cells). Described as above. Put shortly: as §2
In assay [24] the test system is S1507-2. The description is as above. Put shortly:
as §2

The structures appear in SMILES notation. ± gives the standard deviation of the averaged measurements.

Turning to `O=C(c1ccc(C(=O)N2CCC(N3CCCC3)CC2)c(Nc2ccccc2)c1)N1CCC(N2CCCC2)CC1` [UNC1215] (max concentration tested 30000 nM), the “% inhibition” value is 2.34 ± 0.36% with S462 [1]; 20.4% in the assay on HS-PSS [2]; -5.53% with YST-1 [3]; 15.2% in the assay with HS-Sch-2 [4]; 13.9% with ST8814 [5]; 3.37% in the assay with STS26T [6]. Further, the “% inhibition” value in assay [7] is 5.83%; in assay [8], 8.9%; in the assay with S1507-2 [9], 5.34 ± 1.7%. Besides, the drug sensitivity score is 0 in the assay with S462 [10]; 0.73 with HS-PSS [11]; 0 in the assay on YST-1 [12]; 0.38 in the assay with HS-Sch-2 [13]; 0.198 with ST8814 [14]; 0 with STS26T [15]. Also, the drug sensitivity score (in assay [16]; in assay [17]; in the assay with S1507-2 [18]; with HS-PSS [19]; in the assay with ST8814 [20]; in the assay with STS26T [21]) was 0 each time. In addition, the drug sensitivity score (in assay [22]; in assay [23]; with S1507-2 [24]) was 0 in each case.
As to `Cc1cnc(Nc2ccc(F)cc2Cl)nc1-c1c[nH]c(C(=O)N[C@H](CO)c2cccc(Cl)c2)c1` [VX-11E] (max concentration tested 2500 nM), the “% inhibition” value in the assay with S462 [1] is 29.1 ± 8.6%; with HS-PSS [2], 44.5%; with YST-1 [3] it was 6.16%; in the assay on HS-Sch-2 [4], 71.8%; with ST8814 [5] it was 67.8%; in the assay with STS26T [6] it was 34%. Moreover, the figures for the “% inhibition” value (in [7]; in [8]; with S1507-2 [9]) were 71.8%, 64.2% and 40.7 ± 3%, respectively. Also, the drug sensitivity score is 0.861 ± 0.47 in the assay with S462 [10]; 2.39 in the assay on HS-PSS [11]; 0 with YST-1 [12]; 6.97 with HS-Sch-2 [13]; 3.25 in the assay on ST8814 [14]; 1.5 in the assay with STS26T [15]. Also, the drug sensitivity score amounted to 4.46 in assay [16]; 3.7 in [17]; 1.62 ± 0.29 in the assay on S1507-2 [18]; 0 with HS-PSS [19]; 5.09 in the assay with ST8814 [20]; 2.55 with STS26T [21]. Besides, the values for the drug sensitivity score (in assay [22]; in assay [23]; in the assay with S1507-2 [24]) were 4.5, 2 and 2.31 ± 3.2, respectively.
For `CCCCC(=O)OCC(=O)[C@]1(O)Cc2c(O)c3c(c(O)c2[C@@H](O[C@H]2C[C@H](NC(=O)C(F)(F)F)[C@H](O)[C@H](C)O2)C1)C(=O)c1c(OC)cccc1C3=O` [Valrubicin] (max concentration tested 5000 nM), the “% inhibition” value was 94.14 ± 0.67% in the assay with S462 [1]; 97.5% with HS-PSS [2]; 100% with YST-1 [3]; 101% with HS-Sch-2 [4]; 97.2% in the assay with ST8814 [5]; 97.7% with STS26T [6]. Further, the figures for the “% inhibition” value (in [7]; in [8]; in the assay on S1507-2 [9]) were 98.5%, 95.1% and 92.5 ± 2.8%, respectively. Moreover, the drug sensitivity score stood at 14.22 ± 0.059 with S462 [10]; 11.7 in the assay on HS-PSS [11]; 19.3 in the assay on YST-1 [12]; 14.3 with HS-Sch-2 [13]; 13.6 in the assay on ST8814 [14]; 13.5 in the assay with STS26T [15]. Further, the drug sensitivity score was determined as 14.1 in assay [16]; 14 in assay [17]; 10.19 ± 0.1 with S1507-2 [18]; 0 with HS-PSS [19]; 0 in the assay on ST8814 [20]; 0 in the assay on STS26T [21]. The drug sensitivity score is 0 in assay [22], 0 in assay [23] and 0.125 ± 0.18 in the assay with S1507-2 [24].
Turning to `COc1cc2/c(=N/c3ccc(Br)cc3F)nc[nH]c2cc1OCC1CCN(C)CC1` [Vandetanib] (max concentration tested 1000 nM), the “% inhibition” value is 11.2 ± 6.6% with S462 [1]; 34.2% in the assay on HS-PSS [2]; 2.38% in the assay with YST-1 [3]; 8.38% in the assay on HS-Sch-2 [4]; 1.05% in the assay on ST8814 [5]; 14.5% in the assay on STS26T [6]. Besides, the “% inhibition” value in assay [7] is -4.21%; in assay [8], -0.207%; with S1507-2 [9], 28 ± 9.4%. Moreover, the drug sensitivity score in the assay on S462 [10] worked out at 0; in the assay on HS-PSS [11], 4.01; in the assay on YST-1 [12] it was 0; in the assay with HS-Sch-2 [13], 0; with ST8814 [14], 0; in the assay on STS26T [15], 0.185. In addition, the drug sensitivity score in assay [16] is 0; in assay [17], 0; in the assay on S1507-2 [18] it was 1.44 ± 2; with HS-PSS [19], 0.53; with ST8814 [20] it was 0; in the assay on STS26T [21], 0. For the same compound, the drug sensitivity score was found to be 0 in [22], 0 in assay [23] and 0.78 ± 1.1 in the assay with S1507-2 [24].
For the compound `CCc1c(C(=O)C(N)=O)c2c(OCC(=O)O)cccc2n1Cc1ccccc1` [Varespladib] (max concentration tested 10000 nM), the “% inhibition” value was 7.05 ± 10% in the assay on S462 [1]; 4.52% with HS-PSS [2]; 3.3% in the assay on YST-1 [3]; 0.4% with HS-Sch-2 [4]; 5.74% in the assay with ST8814 [5]; 7.98% in the assay on STS26T [6]. Moreover, the entries for the “% inhibition” value (in assay [7]; in [8]; with S1507-2 [9]) were 9.85%, 13.8% and 6.19 ± 5.8%, respectively. For the same compound, the drug sensitivity score in the assay on S462 [10] came out at 0.641 ± 0.91; in the assay on HS-PSS [11], 0; with YST-1 [12], 0; in the assay with HS-Sch-2 [13] it was 0; with ST8814 [14], 0; in the assay with STS26T [15], 0. Further, the drug sensitivity score in assay [16] worked out at 0; in [17] it was 0.748; in the assay with S1507-2 [18], 0.0077 ± 0.011; in the assay on HS-PSS [19], 0; in the assay with ST8814 [20] it was 0; with STS26T [21], 0. The drug sensitivity score in [22] came out at 0; in assay [23], 0; with S1507-2 [24], 0.519 ± 0.73.
On to `Clc1ccc(Nc2nnc(Cc3ccncc3)c3ccccc23)cc1` [Vatalanib] (max concentration tested 10000 nM), for which the “% inhibition” value in the assay with S462 [1] was 5.29 ± 6.4%; with HS-PSS [2], 11.8%; in the assay on YST-1 [3], 10.3%; in the assay with HS-Sch-2 [4], 12.3%; with ST8814 [5], 1.01%; in the assay on STS26T [6], 6.33%. Also, the “% inhibition” value in assay [7] stood at 13.4%; in assay [8], 5.92%; in the assay on S1507-2 [9] it was 2.66 ± 4.9%. In addition, the drug sensitivity score was determined as 0 in the assay on S462 [10]; 0 in the assay on HS-PSS [11]; 1.52 in the assay with YST-1 [12]; 1.77 in the assay with HS-Sch-2 [13]; 0 in the assay with ST8814 [14]; 0 in the assay on STS26T [15]. Moreover, the drug sensitivity score in assay [16] is 0.0903; in assay [17] it was 0; with S1507-2 [18] it was 0; with HS-PSS [19] it was 0; in the assay on ST8814 [20], 0; in the assay on STS26T [21], 0. Further, the drug sensitivity score (in assay [22]; in assay [23]; with S1507-2 [24]) was 0 throughout.

For orientation: % inhibition means the change of the read-out against control, counted positive when it falls.
